Data set [1] relates to C. elegans. The data set is described as follows: Quantification of movement of hydrogel-embedded animals. It is filed as in vivo. The procedure:
Young adult QW1217 worms with pan-neuronal expression of nuclear-localized mCherry were embedded in 10% and 20% PEG hydrogels (3 μL with 100 μm spacer, 0.1% I2959, 20 s exposure using a 312 nm UV source). Worms received either no pretreatment, exposure to hypoosmotic (diH2O, 0 mOsm) or hyperosmotic buffers (0.5 M glycerol in diH2O, 500 mOsm or 1.5×S-Basal, 420 mOsm) for 10 min, or cooling in a −20° C. freezer or in contact with ice for 1-3 min prior to crosslinking. PEG hydrogel solutions were prepared in diH2O or S-Basal buffer, and some contained the paralytic reagents 25 mM sodium azide (Massie et al., 2003) or 1 mM tetramisole hydrochloride (Sigma) (Larsch et al., 2013). Other hydrogel solutions were prepared in 500 mM glycerol or 1.5×S-Basal hyperosmotic buffers. After crosslinking, all hydrogels were submerged in an aqueous solution of either S-Basal, diH20, sodium azide (25 mM) or tetramisole (1 mM) for imaging. Videos were captured with a Hamamatsu Orca-Flash 4.0 camera at 1 frame/sec for 3 min on a Zeiss AxioObserver inverted epifluorescence microscope with a 20×/0.5 NA objective.
Animal movement was analysed by comparing frame-to-frame image differences. Movement index is described using the equation M.I.=ΔIROI/IROI−IBG, where ΔIROI represents the difference in pixel intensity between consecutive frames, averaged across a region of interest (ROI), IROI represents the average intensity of the ROI, and IBG represents the average intensity of a Background region. […] First, the absolute value differences between each pair of consecutive frame averaged pixel intensities were calculated. Next, the difference image stack was smoothed (average of its 3×3 neighborhood). To reduce the contribution of pixel noise, a value of 10 (corresponding to average pixel noise) was subtracted uniformly from each frame and negative values were set to 0. Regions of Interest (ROIs) were selected over the head (nerve ring) and ventral cord and a background region (BG). The movement index was calculated as […], where ΔIROI is the mean of difference images across the ROI, and ΔIROI and IBG, are the mean intensity of the ROI and background regions for the first frame, respectively. Here, identical sequential frames would have a M.I. of zero, whereas images that have changes in position, rotation, focus, or intensity have increasing M.I. values.
Movement in the image plane was quantified by tracking cell nucleus position over 3 minutes. Individual neurons were tracked using NeuroTracker (Larsch et al., 2013) and centroid positions were used to determine the range of axial movement by the animal.

Data set [2] relates to C. elegans. The note with it: 25 mM sodium azide, agarose pad.
Method: For hydrogel encapsulation, 5 μL of a 10% PEG hydrogel with 0.1% I2959 containing late L1/L2 stage animals was placed on a fluorinated glass slide with 50 μm thick tape spacers, polymerized with 312 nm UV light, and imaged on an upright Zeiss Axioskop microscope with a 100×/1.4 NA objective using DIC optics. Images were captured every hour for 12 hours without movement of the sample. For comparison, animals were mounted onto conventional agarose pads with chemical or physical restraint. […] Animals were picked into this droplet and a cover slip was placed on top before imaging. Alternatively, a 0.25-0.5 μL drop of polystyrene nanobeads (100 nm, Polysciences, Inc.) was placed on a 10% agarose pad prior to adding animals, a cover slip, and imaging.
The subject of another data set is AWA sensory neuron pair. The data set is described as follows: Microfluidic chemical pulse stimulation of hydrogel-embedded C. elegans, GCaMP light sheet imaging. It is filed as in vivo. The note with it: 5-s and 10-s pulses. An excerpt: Wild-type C. elegans expressing GCaMP in the AWA sensory neuron pair were encapsulated in a hydrogel disk above a 100 μm wide microfluidic channel. External tubing connections and valves delivered 1, 5, or 10 second long pulses of chemical flow beneath the hydrogel disk. Small molecule chemicals (MW<500 Da) diffuse rapidly through the hydrogel, typically in under 1 second, to reach the encapsulated organism(s).

In another data set the test system is AWA activity. The data set is described as follows: Nemadipine-A treatment of multi-well plate embedded animals, optogenetically-evoked calcium responses. It is filed as in vivo, C. elegans. The note with it: 10, 50, 100 uM vs 1% DMSO control, stimulated every 10 min for 24 hours; dose dependence. The procedure: A small volume (10 uL) of PEG hydrogel solution (10% with 0.5×S. basal) with photoinitiator was pipetted into each PCR tube (one tube per one well). Young adult animals (CX16573) were transferred into the hydrogel solution by worm pick (up to 40 or more). The hydrogel and worm solution was transferred from one PCR tube to the bottom of one well of a 384 well plate, and repeated for as many PCR tubes prepared. The 384 well plate was placed into −20° C. freezer for no more than 10 min, then immediately placed on the 308 nm light source to crosslinking for no more than 45 s. Then, a small volume (60 uL) of 1 mM ATR in water was pipetted into crosslinked wells, covered, placed in the dark, and allowed to incubate for at least 1 hr, or up to 24 hrs. Animals were then imaged on a custom designed microscope and optical configuration allowing for both red-light excitation and blue-light excitation sent through the objective, all set by the initial experimental settings. Red light pulse durations, well position, cycle number and cycle delay conditions were set by a custom MicroManager script, and executed.
After crosslinking and before all-trans retinal (ATR) transfer to each well, solutions of 10 μM, 50 μM, and 100 μM nemadipine-A to a final concentration of 1% DMSO in 1 mM ATR were prepared. A control well containing only 1% DMSO in 1 mM ATR was prepared as well. […]

Data set [3] relates to AWA chemosensory neuron calcium responses. The data set is described as follows: Automated small-molecule screening of optogenetically-evoked calcium activity suppressors (LOPAC library). It is filed as in vivo, C. elegans. Particulars: 10 μM, 1% DMSO, about 18 hours exposure; beyond mean ± 3 standard deviations.
Method: For all well plate experiments, equal parts of 20% PEGDA (0.1% Irgacure) was added to a synchronized animal population in M9, resulting in ˜5 an/μL, 10% PEGDA, 0.05% Irgacure, and 0.5×M9. […] Both procedures used repeated mixing (4-5×) to maintain an even animal suspension during transfer. The animal-containing multiwell plate was transiently cooled for 10 min at −20° C. to settle animals at the bottom of the well, then immediately exposed to 308 nm UV light to photo-crosslink and embed the animals. Single wells can also be prepared by standard picking and transfer of animals to a final 10% gel solution (using PCR tubes), depending on experimental design or desired throughput.
Aliquoted LOPAC drug library plates were received from the UMMS small-molecule screening facility as 16 individual 96-well plates containing 3 nmol of compound per well (3 μL of 1 mM in 100% DMSO), stored at −80° C. until use. […]
A suite of custom ImageJ macros was developed for automated neuron selection and trace recording (aNT), or to manually select neurons (neuronPos) and then record calcium intensity in each well across all wells and cycles automatically (NT). […] Local background subtracted fluorescence (F) was calculated as F=(FR−Fbg).
Where [4] appears, read: hyper-osmotic solution (0.5 M glycerol 500 mOsm or 1.5x S-Basal 420 mOsm) 10 min prior to or during crosslinking, imaged in S-Basal buffer.

Counter-ions that a name gives are not always drawn.

For `[N-]=[N+]=[N-]` [sodium azide], the “Reduction of movement index” value in the data set with C. elegans [1] (20% PEG hydrogels, paralytic vs no paralytic, P<0.0001) turned out to be 5 fold. In addition, the “Movement index (M.I.)” value in the data set with C. elegans [1] (C. elegans embedded in 20% PEG hydrogels, mean over 3 min, 25 mM sodium azide or 1 mM tetramisole during gelation or transiently after encapsulation, hydrogel alone without paralytic) is given as 0.07±0.01. The “Movement (displacement range) over 3 minutes” value in the data set with C. elegans [1] (C. elegans embedded in 20% PEG hydrogels, 25 mM sodium azide or 1 mM tetramisole, hydrogel alone without paralytic) is 18 μm. For the same compound, the “Cell death in paralyzed animals” value in the data set with C. elegans [2] was “characteristics of necrotic cell death after 6 hours”.

Turning to `c1ccc(C2CN3CCSC3=N2)cc1` (stereo not drawn) [tetramisole, tetramisole hydrochloride], in the data set on C. elegans [1] (in vivo), the “Movement (displacement range) over 3 minutes” value was determined as 19 μm, the “Movement index (M.I.)” value is listed as 0.06±0.02 and the “Reduction of movement index” value was determined as 5 fold.

Take `OCC(O)CO` [glycerol]: in the data set on C. elegans [1] (setting [4]), the “Movement index (M.I.)” value is on record as 0.02±0.007 and the “Range of movement over 3 min” value came to 8±7 μm.

On to `CC(=O)C(C)=O` [diacetyl], for which the “AWA neuron response (relative integrated fluorescence) to odor stimulation” value with AWA sensory neuron pair was “stimulated one of the two neurons”.

Turning to `CCOC(=O)C1=C(C)NC(C)=C(C(=O)OCC)C1c1c(F)c(F)c(F)c(F)c1F` [Nemadipine-A], the “Peak calcium response (change in fluorescence) of AWA” value in the data set with AWA activity is reported as “reduction in peak response”.

In the case of ivermectin, the “Screen result: relative peak ΔF/F0 calcium response, fold change cycle 4 to 1” value in data set [3] was “positive hits”.

The values are drawn from patent US11248995B2, “Hydrogel encapsulation of living organisms for long-term microscopy” (priority 2017, dated 2022).
